Test results as given in US6403575B1, “3-Pyridyl enantiomers and their use as analgesics” (Abbott Laboratories, priority 1996, dated 2002).
Counter-ions that a name gives are not always drawn. Like-named read-outs stand apart in the source and are kept apart here.

What was measured:
rat spinal cord cultures = experiment: Neuroprotection against substance P or glutamate toxicity in primary spinal cord cultures (LDH release); type: cell-based; conditions: for block of SP-induced toxicity: SP 30 μM, spantide II 100 μM, MK-801
[1] = target: T1, neuronal nicotinic acetylcholine receptors (Rattus norvegicus, UniProt P09483+P12390); experiment: [3H]-cytisine binding to neuronal nicotinic acetylcholine receptors, whole rat brain membranes; conditions: [3H]-cytisine 1.25 nM, whole rat brain membranes; read-out: [3H] CYT Ki
T1 construct: crude synaptic membrane preparations from whole rat brain; from tissue; host or cells: whole rat brain, crude synaptic membranes
T1 sequence (P09483 31-630): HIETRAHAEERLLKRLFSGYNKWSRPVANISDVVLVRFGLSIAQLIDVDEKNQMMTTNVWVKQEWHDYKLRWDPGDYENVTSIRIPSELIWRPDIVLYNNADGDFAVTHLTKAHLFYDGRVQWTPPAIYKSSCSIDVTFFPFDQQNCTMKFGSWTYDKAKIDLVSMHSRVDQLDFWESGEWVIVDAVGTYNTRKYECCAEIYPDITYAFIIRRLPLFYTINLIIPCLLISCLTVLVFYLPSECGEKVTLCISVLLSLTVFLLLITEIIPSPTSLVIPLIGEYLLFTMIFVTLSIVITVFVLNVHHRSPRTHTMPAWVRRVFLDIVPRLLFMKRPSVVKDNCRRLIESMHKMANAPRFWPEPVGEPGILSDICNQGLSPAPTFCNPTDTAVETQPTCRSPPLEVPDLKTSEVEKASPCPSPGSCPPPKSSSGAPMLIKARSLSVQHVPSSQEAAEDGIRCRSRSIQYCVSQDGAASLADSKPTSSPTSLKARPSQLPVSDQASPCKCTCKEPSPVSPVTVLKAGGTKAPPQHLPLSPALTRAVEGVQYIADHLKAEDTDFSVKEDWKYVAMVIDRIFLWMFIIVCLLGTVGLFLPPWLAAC
T1 sequence (P12390 25-500): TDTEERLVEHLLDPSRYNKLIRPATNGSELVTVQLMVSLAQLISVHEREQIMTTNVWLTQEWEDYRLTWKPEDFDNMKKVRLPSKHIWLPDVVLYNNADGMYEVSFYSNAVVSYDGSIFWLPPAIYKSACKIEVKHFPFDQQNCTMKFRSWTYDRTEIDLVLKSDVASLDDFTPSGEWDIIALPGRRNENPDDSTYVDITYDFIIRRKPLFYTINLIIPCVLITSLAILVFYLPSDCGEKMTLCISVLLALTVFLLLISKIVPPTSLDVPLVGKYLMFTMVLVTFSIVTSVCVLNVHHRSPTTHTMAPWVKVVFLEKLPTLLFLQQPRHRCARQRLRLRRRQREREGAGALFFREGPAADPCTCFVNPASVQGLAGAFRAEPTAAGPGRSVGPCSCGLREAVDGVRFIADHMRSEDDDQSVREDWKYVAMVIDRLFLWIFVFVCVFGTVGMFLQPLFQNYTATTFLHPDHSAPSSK
Method: Protocol for Determination of Nicotinic Acetylcholine Channel Receptor Binding Potencies of Ligands
Binding of [^3H]-cytisine ([^3H]-CYT) to neuronal nicotinic acetylcholine receptors was accomplished using crude synaptic membrane preparations from whole rat brain (Pabreza et al., Molecular Pharmacol., 1990, 39:9). Washed membranes were stored at −80° C. prior to use. Frozen aliquots were slowly thawed and resuspended in 20 volumes of buffer (containing: 120 mM NaCl, 5 mM KCl, 2 mM MgCl2, 2 mM CaCl2 and 50 mM Tris-Cl, pH 7.4 @4° C.). After centrifuging at 20,000×g for 15 minutes, the pellets were resuspended in 30 volumes of buffer. Homogenate (containing 125-150 μg protein) was added to triplicate tubes containing concentrations of test compound and [^3H]-CYT (1.25 nM) in a final volume of 500 μL. Samples were incubated for 60 minutes at 4° C., then rapidly filtered through Whatman GF/B filters presoaked in 0.5% polyethyleneimine using 3×4 mL of ice-cold buffer. The filters are counted in 4 mL of Ecolume® (ICN). Nonspecific binding was determined in the presence of 10 μM (−)-nicotine and values were expressed as a percentage of total binding.

[2] = target: T2, peripheral ganglionic receptors (Homo sapiens, UniProt P30926+P32297); experiment: 86Rb+ flux activation in IMR-32 human neuroblastoma cells; type: cell-based; conditions: 1 μM compound, % of maximum response to (S)-nicotine
T2 construct: Cells of the IMR-32 human neuroblastoma clonal cell line (ATCC, Rockville, Md.); host or cells: IMR-32 human neuroblastoma cells
T2 sequence (P32297 32-505): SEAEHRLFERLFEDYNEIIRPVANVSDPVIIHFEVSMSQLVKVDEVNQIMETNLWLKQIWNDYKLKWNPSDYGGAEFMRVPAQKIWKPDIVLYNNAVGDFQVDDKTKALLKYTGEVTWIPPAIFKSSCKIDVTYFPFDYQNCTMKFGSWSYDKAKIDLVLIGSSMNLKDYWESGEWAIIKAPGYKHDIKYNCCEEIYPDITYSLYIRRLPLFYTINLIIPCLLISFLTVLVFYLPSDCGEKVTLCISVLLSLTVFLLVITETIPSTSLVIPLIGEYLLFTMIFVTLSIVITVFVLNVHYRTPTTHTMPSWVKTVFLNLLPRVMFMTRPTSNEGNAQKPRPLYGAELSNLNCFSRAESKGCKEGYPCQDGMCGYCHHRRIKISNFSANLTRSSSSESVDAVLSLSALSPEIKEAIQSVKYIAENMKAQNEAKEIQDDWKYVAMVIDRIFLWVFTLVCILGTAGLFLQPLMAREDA
T2 sequence (P30926 22-498): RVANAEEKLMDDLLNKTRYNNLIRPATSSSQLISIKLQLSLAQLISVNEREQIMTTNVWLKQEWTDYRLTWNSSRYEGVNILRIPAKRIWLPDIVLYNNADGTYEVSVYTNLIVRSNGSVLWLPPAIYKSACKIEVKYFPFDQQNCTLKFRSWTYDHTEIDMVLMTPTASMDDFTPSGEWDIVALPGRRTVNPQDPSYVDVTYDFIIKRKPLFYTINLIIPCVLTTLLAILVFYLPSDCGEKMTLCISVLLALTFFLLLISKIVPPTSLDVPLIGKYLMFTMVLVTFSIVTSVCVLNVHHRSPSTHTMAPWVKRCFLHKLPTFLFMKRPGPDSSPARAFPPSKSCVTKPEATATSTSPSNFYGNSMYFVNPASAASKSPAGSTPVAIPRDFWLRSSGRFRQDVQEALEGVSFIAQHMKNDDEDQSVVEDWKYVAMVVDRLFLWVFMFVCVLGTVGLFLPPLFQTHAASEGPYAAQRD
Method: Protocol for the Determination of Ability of Nicotinic Acetylcholine Receptor Ligands to Activate Peripheral Ganglionic Receptors
Cells of the IMR-32 human neuroblastoma clonal cell line (ATCC, Rockville, Md.) were maintained in a log phase of growth according to established procedures. Experimental cells were seeded at a density of 500,000 cells/mL into a 24-well tissue culture dish. Plated cells were allowed to proliferate for at least 48 hours before loading with 2 μCi/mL of ^86Rb^+ (35 Ci/mmol) overnight at 37° C. The ^86Rb^+ efflux assays were performed according to previously published protocols (Lukas, R. J., J. Pharmacol. Exp. Ther., 265: 294-302, 1993) except serum-free Dulbecco's Modified Eagle's Medium was used during the ^86Rb^+ loading, rinsing, and agonist-induced efflux steps. Data reflect the activation of ^86Rb^+ flux at a concentration of 1 μM, and reflect the response as a percentage of the maximum response elicited by (S)-nicotine.

mice = experiment: Mouse Hot Plate Paradigm; type: in vivo; design: key to MED Hot plate model (μmol/kg, i.p.): NS = no significant effect observed relative to saline controls at the doses tested; conditions: 30 minutes prior to testing, 55° C.; for minimal effective dose: ip, 0.5 h, i.p., read-out: MED Hot plate model (μmol/kg, i.p.)

CCCc1cc(OC[C@@H]2CCN2)cnc1Cl (as salt: hydrochloride) [Example 28, 2-Chloro-3-propyl-5-((2S)-azetidinylmethoxy)pyridine hydrochloride]
melting point: 148 to 150 °C

CCc1cc(OC[C@@H]2CCN2)cnc1Cl (as salt: hydrochloride) [Example 27, 2-Chloro-3-ethyl-5-((2S)-azetidinylmethoxy)pyridine hydrochloride]
melting point: 102 to 104 °C

Clc1ncc(OC[C@H]2CCN2)cc1Br (as salt: hydrochloride) [Example 18, 5-((2R)-azetidinylmethoxy)-3-bromo-2-chloropyridine hydrochloride]
melting point: 175 °C

CCN1C[C@]2(COC(=O)c3ccccc3N3C(=O)C[C@H](C)C3=O)CC[C@H](OC)[C@@]34[C@@H]5C[C@H]6[C@H](OC)[C@@H]5[C@](O)(C[C@@H]6OC)[C@@](O)([C@@H](OC)[C@H]23)[C@@H]14 [methyllycaconitine]
block of the neuroprotective effect by nicotinic antagonists (rat spinal cord cultures; mecamylamine 10 μM, MLA 10 nM, α-BTX 1 nM): blocked

Cc1ccc(OC[C@@H]2CCN2)cn1 (as salt: hydrochloride) [Example 20, 5-((2S)-Azetidinylmethyloxy)-2-methylpyridine dihydrochloride]
melting point: 141 to 144 °C

C#Cc1cc(OC[C@@H]2CCN2)cnc1Cl (as salt: hydrochloride) [Example 30, 2-Chloro-3-ethynyl-5-((2S)-azetidinylmethoxy)pyridine hydrochloride]
melting point: 90 °C (dec.)

C=Cc1cc(OC[C@@H]2CCN2)cnc1Cl (as salt: hydrochloride) [Example 26, 2-Chloro-3-vinyl-5-((2S)-azetidinylmethoxy)pyridine hydrochloride]
melting point: 121 °C (dec.)

Clc1ncc(OC[C@H]2CCN2)cc1Br [Example 18, 5-((2R)-azetidinylmethoxy)-3-bromo-2-chloropyridine hydrochloride]
Ki [1]: 0.02 nM | IMR-32 % maximal nicotine response at 1 μM Cmpd conc'n [2]: 93% | minimal effective dose (mice): 0.62 µmol/kg

Fc1cncc(OC[C@@H]2CCN2)c1 (as salt: hydrochloride) [Example 10, 5-((2S)-Azetidinylmethyloxy)-3-fluoropyridine dihydrochloride]
melting point: 165 to 167 °C

α-bungarotoxin
block of the neuroprotective effect by nicotinic antagonists (rat spinal cord cultures): blocked

Cl.O=[N+]([O-])c1cncc(OC[C@@H]2CCN2)c1 [Example 132, 5-nitro-3-(2-(S)-azetidinylmethoxy)pyridine hydrochloride]
Ki [1]: 0.33 nM | melting point: 162 to 164 °C (dec.)

CCc1cc(OC[C@@H]2CCN2)cnc1F (as salt: tosylate) [Example 126, 5-ethyl-6-fluoro-3-(2-(S)-azetidinylmethoxy)pyridine]
melting point: 106 to 108 °C

CCc1cc(OC[C@@H]2CCN2)cnc1C (as salt: hydrochloride) [Example 36, 6-Ethyl-6-methyl-3-((2S)-azetidinylmethoxy)pyridine hydrochloride]
melting point: 150 to 153 °C

Fc1cncc(OC[C@H]2CCN2)c1 [Example 11, 5-((2R)-Azetidinylmethyloxy)-3-fluoropyridine dibenzoate]
Ki [1]: 0.34 nM | IMR-32 % maximal nicotine response at 1 μM Cmpd conc'n [2]: 31% | MED Hot plate model (μmol/kg, i.p.) (mice): NS

Brc1cncc(OC[C@@H]2CCN2)c1 (as salt: hydrochloride) [Example 12, 5-((2S)-Azetidinylmethyloxy)-3-bromopyridine dihydrochloride]
melting point: 163 to 165 °C

Cc1cc(OC[C@@H]2CCN2)cnc1F (as salt: salt) [Example 32, 5-((2S)-azetidinylmethoxy)-3-methyl-2-fluoropyridine benzoate]
melting point: 104 to 108 °C

Clc1ncc(OC[C@@H]2CCN2)cc1Br (as salt: hydrochloride) [Example 17, 5-((2S)-azetidinylmethoxy)-3-bromo-2-chloropyridine hydrochloride]
melting point: 168 to 169 °C

Fc1ncc(OCC2CCN2)cc1Cl (centres unmarked) (as salt: tosylate) [Example 33, 5-((29)-azetidinylmethoxy)-3-chloro-2-fluoropyridine tosylate]
melting point: 99 °C

COc1ccc(OC[C@H]2CCN2)cn1 [Example 119, 6-Methoxy-3-(2(R)-azetidinylmethoxy)pyridine]
Ki [1]: 0.67 nM | melting point: 139 to 142 °C

Cc1ccc(OC[C@H]2CCN2)cn1 (as salt: HCl) [Example 115, 6-Methyl-3-(2-(R)-azetidinylmethoxy)pyridine]
melting point: 134 to 136 °C

Cc1cncc(OC[C@H]2CCN2)c1 [Example 14, 5-Methyl-3-((2R)-azetidinylmethyloxy)pyridine hydrochloride]
Ki [1]: 0.18 nM | IMR-32 % maximal nicotine response at 1 μM Cmpd conc'n [2]: 15% | minimal effective dose (mice): 62 µmol/kg

spantide II
block of SP-induced toxicity (rat spinal cord cultures): blocked

Clc1cc(OC[C@H]2CCN2)cnc1Cl (as salt: hydrochloride) [Example 16, 5-((2R)-azetidinylmethoxy)-2,3-dichloropyridine hydrochloride]
melting point: 166 to 168 °C

Fc1ncc(OC[C@H]2CCN2)cc1Br (as salt: tosylate) [Example 125, 5-bromo-6-fluoro-3-(2-(R)-azetidinylmethoxy)pyridine]
melting point: 238 to 240 °C

Fc1cncc(OC[C@H]2CCN2)c1 (as salt: salt) [Example 11, 5-((2R)-Azetidinylmethyloxy)-3-fluoropyridine dibenzoate]
melting point: 163 to 165 °C

Fc1ccc(OC[C@@H]2CCN2)c(F)n1 (as salt: tosylate) [Example 116, 2.6-Difluoro-3-(2-(S)-azetidinylmethoxy)pyridine tosylate]
melting point: 140 to 143 °C

C=Cc1cncc(OC[C@@H]2CCN2)c1 (as salt: hydrochloride) [Example 22, 5-Vinyl-3-((2S)-Azetidinylmethyloxy)lpyridine dihydrochloride]
melting point: 88 to 90 °C

CCCCc1cc(OC[C@@H]2CCN2)cnc1Cl (as salt: hydrochloride) [Example 29, 3-Butyl-2-chloro-5-((2S)-azetidinylmethoxy)pyridine hydrochloride]
melting point: 88 to 90 °C

CCCc1cncc(OC[C@@H]2CCN2)c1 (as salt: hydrochloride) [Example 24, 5-Propyl-3-((2S)-azetidinylmethyloxy)lpyridine hydrochloride]
melting point: 79 to 80 °C

Brc1cncc(OC[C@@H]2CCN2)c1 [Example 12, 5-((2S)-Azetidinylmethyloxy)-3-bromopyridine dihydrochloride]
Ki [1]: 0.26 nM | MED Hot plate model (μmol/kg, i.p.) (mice): NS

Cc1cncc(OC[C@@H]2CCN2)c1 [Example 13, 5-Methyl-3-((2S)-Azetidinylmethyloxy)pyridine dibenzoate]
Ki [1]: 0.05 nM | IMR-32 % maximal nicotine response at 1 μM Cmpd conc'n [2]: 27% | MED Hot plate model (μmol/kg, i.p.) (mice): NS

CCc1cncc(OC[C@@H]2CCN2)c1 [Example 23, 5-Ethyl-3-((2S)-Azetidinylmethyloxy)lpyridine hydrochloride]
Ki [1]: 0.11 nM | MED Hot plate model (μmol/kg, i.p.) (mice): NS

C=Cc1cc(OC[C@@H]2CCN2)cnc1C (as salt: hydrochloride) [Example 35, 6-Methyl-5-vinyl-3-((2S)-azetidinylmethoxy)pyridine hydrochloride]
melting point: 154 to 155 °C

Clc1cc(OC[C@@H]2CCN2)cnc1Cl (as salt: hydrochloride) [Example 15, 5-((2S)-azetidinylmethoxy)-2,3-dichloropyridine hydrochloride]
melting point: 181 to 182 °C

C[C@]12N[C@H](Cc3ccccc31)c1ccccc12 [MK-801]
block of Glu-induced toxicity (rat spinal cord cultures; Glu 300 μM, MK-801 1 μM): blocked | block of SP-induced toxicity (rat spinal cord cultures): cannot prevent

CCCc1cncc(OC[C@@H]2CCN2)c1 [Example 24, 5-Propyl-3-((2S)-azetidinylmethyloxy)lpyridine hydrochloride]
Ki [1]: 0.05 nM | minimal effective dose (mice): 62 µmol/kg
